Drawing on patent publication US6774143B1, “Method for treating cells resistant to antineoplastic agents” (Novartis AG, priority 2003, dated 2004), this text covers IC50 for two molecules.

Experiment [1] relates to 1A9 cells. Kind of experiment: Antiproliferative assay (MTS). Format: cell-based. Conditions: Homo sapiens, 1A9, 72 h, single value given. The protocol: A549, a human non-small cell lung carcinoma and MDA-MB-435, a human breast carcinoma, used in this study are obtained from the American Type Culture Collection (ATCC, Rockville, Md., USA). MDA-MB-435 cells are maintained in MEM containing 10% FBS, 1% sodium pyruvate, 1% MEM non-essential amino acids, and 15 mM HEPES (pH=7.4). A549 cells are maintained in RPMI 1640 containing 10% FBS. 1A9, a single-cell clone of the human ovarian carcinoma cell line A2780 and PTX22, the paclitaxel-resistant subline, used in this stdy are obtained from M. Wartman (Novartis Pharmauticals). 1A9 cells and PTX22 cells are maintained in RPMI 1640 supplemented with 10% FBS. PTX22 maintenance media also contained 15 ng/mL paclitaxel and 5 μg/mL verapamil. Drug is removed from the media for 5-7 days before use in an experiment. […]
Cell lines are trypsinized and counted using a Coulter counter. […] Initial cell density for each cell line is measured on day 1 by adding 10 μL MTS mixture (see below), incubating for 4 h and recording absorbance at 490 nm (A490). Two or three days after test compound addition, 10 μL/well of MTS mixture is added to the test plates and A490 was read 4 h later. A490 values for wells containing cells are corrected for media absorbance, then normalized to initial density readings to determine percent net growth. Percent net growth is calculated as (A490+drug−A490 initial)/(A490—drug—A490 initial). […]

The subject of experiment [2] is 1A9 cells. The experiment in a line: In vitro cytotoxicity assay (MTT). It is filed as cell-based. As to conditions: Homo sapiens, 1A9, 72 h, 1A9 cells, 72 hours. The protocol: 1A9 and 1A9PTX22 cells are plated in 96-well plates at 5×10^4 cells/well, plced in a tissue culture incubator and allowed to attach overnight. The next morning, the number of viable cells in the “time 0” plate (3 wells for each cell line) is determined using an MTT assay (Alley M C, et al., Cancer Res. 1988, 48:589-601).
At the same time drugs are added in serial, 10-fold dilutions, to the experimental plates. Corresponding vehicles are added to control plates. Experimental and control plates are then incubated in the tissue culture incubator for 72 hours. After the incubation the number of viable cells is determined in each plate using the MTT assay. IC50s (defined as a concentration of a given compound causing 50% inhibition of cell growth) are determined by comparing cell growth in the drug-treated plate (T−T0) to the cell growth in the corresponding control plate (C−T0). For each experiment results are calculated using average numbers from two sets of plates.
Discodermolide is isolated from the sponge Discodermia dissoluta using the method of Gunasekera SP (supra). Multiple batches of compound of similar purity (all>95% pure, as determined by mass spectrometry, and nuclear magnetic resonance analysis) are used throughout the various studies. For the in vitro cytotoxicity assays all compounds are dissolved in DMSO and are added to the plates with cells to obtain desired concentrations. […] Paclitaxel is purchased from Sigma/Aldrich, (St. Louis, Mo.). For the in vivo hollow fiber assay, solid discodermolide is dissolved in pure ethanol to create a stock solution which is diluted just before dosing with Cremophor EL and D5W to a final concentration of 16.7% Cremophor EL, 8.3% ethanol and 75% D5W. The compound is administered to mice as a single, 15 mg/kg iv injection. Positive control animals receive clinical formulations of paclitaxel (TAXOL) diluted 4-fold with D5W (12.5% Cremophor El, 12.5% ethanol and 75% D5W final concentrations) and administered iv, at 15 mg/kg, once daily for five consecutive days. Vehicle controls are administered according to the corresponding drug schedules.

≈ marks a conversion by molar mass, not a printed value.

For `C=C/C=C\[C@H](C)[C@H](OC(N)=O)[C@@H](C)[C@H](O)[C@@H](C)C/C(C)=C\[C@H](C)[C@@H](O)[C@@H](C)/C=C\[C@@H](O)C[C@@H]1OC(=O)[C@H](C)[C@@H](O)[C@H]1C` [discodermolide, (+)-Discodermolide], the IC50 with 1A9 cells [1] (read-out: 72 hour IC50, 1A9 cells) is 25 nM; in the experiment on 1A9 cells [2] (first experiment), 6 ng/mL (≈ 10.1 nM); in the experiment with 1A9 cells [2] (second experiment), 3 ng/mL (≈ 5.05 nM).
On to `CC(=O)O[C@H]1C(=O)[C@@]2(C)[C@H]([C@H](OC(=O)c3ccccc3)[C@]3(O)C[C@H](OC(=O)[C@H](O)[C@@H](NC(=O)c4ccccc4)c4ccccc4)C(C)=C1C3(C)C)[C@]1(OC(C)=O)CO[C@@H]1C[C@@H]2O` [paclitaxel, reference compound], for which the half-inhibitory concentration (IC50) in the experiment with 1A9 cells [1] (1A9 cells, read-out: 72 hour IC50) was determined as 6 nM; in the experiment on 1A9 cells [2] (first experiment, read-out: IC50) it was 0.8 ng/mL (≈ 0.937 nM); with 1A9 cells [2] (second experiment, read-out: IC50), 0.4 ng/mL (≈ 0.468 nM).
